Reference: patent publication US20210338846A1, “COMPETITIVE PROSTATE-SPECIFIC MEMBRANE ANTIGEN (PSMA) BINDING AGENTS FOR REDUCTION OF NON-TARGET ORGAN UPTAKE OF RADIOLABELED PSMA INHIBITORS FOR PSMA POSITIVE TUMOR IMAGING AND RADIOPHARMACEUTICAL THERAPY” (The Johns Hopkins University, priority 2018, published 2021)
Like-named read-outs stand apart in the source and are kept apart here.

Legend:
[1] = target: PSMA (Homo sapiens, UniProt Q04609); settings: read-out: Ki (PSMA inhibition); cited from earlier work
[2] = system: PSMA+PiP tumors; settings: cited from earlier work; for renal uptake (in words) / uptake in PSMA+ PiP tumors (in words): radiolabeled version
[3] = system: PSMA+ PC-3 PiP and PSMA− PC-3 flu tumors; experiment: Biodistribution of [177Lu]VK-03-27 without and with co-injection of competing inhibitor VK-03-27; type: in vivo, mice; settings: 2 Hour
[4] = system: PSMA+ PC-3 PiP and PSMA− PC-3 flu tumors; settings: for Biodistribution: Blood / Biodistribution: Flu tumor / Biodistribution: Lacrimal gland / Biodistribution: PiP tumor / Biodistribution: Salivary gland / Biodistribution: kidneys / Biodistribution: spleen / Biodistribution: stomach: without competitive inhibitor
[5] = mouse treated with 1.5 MBq; from Kiess et al., 2016; cited from earlier work

PSMA, sequence (Q04609 whole entry): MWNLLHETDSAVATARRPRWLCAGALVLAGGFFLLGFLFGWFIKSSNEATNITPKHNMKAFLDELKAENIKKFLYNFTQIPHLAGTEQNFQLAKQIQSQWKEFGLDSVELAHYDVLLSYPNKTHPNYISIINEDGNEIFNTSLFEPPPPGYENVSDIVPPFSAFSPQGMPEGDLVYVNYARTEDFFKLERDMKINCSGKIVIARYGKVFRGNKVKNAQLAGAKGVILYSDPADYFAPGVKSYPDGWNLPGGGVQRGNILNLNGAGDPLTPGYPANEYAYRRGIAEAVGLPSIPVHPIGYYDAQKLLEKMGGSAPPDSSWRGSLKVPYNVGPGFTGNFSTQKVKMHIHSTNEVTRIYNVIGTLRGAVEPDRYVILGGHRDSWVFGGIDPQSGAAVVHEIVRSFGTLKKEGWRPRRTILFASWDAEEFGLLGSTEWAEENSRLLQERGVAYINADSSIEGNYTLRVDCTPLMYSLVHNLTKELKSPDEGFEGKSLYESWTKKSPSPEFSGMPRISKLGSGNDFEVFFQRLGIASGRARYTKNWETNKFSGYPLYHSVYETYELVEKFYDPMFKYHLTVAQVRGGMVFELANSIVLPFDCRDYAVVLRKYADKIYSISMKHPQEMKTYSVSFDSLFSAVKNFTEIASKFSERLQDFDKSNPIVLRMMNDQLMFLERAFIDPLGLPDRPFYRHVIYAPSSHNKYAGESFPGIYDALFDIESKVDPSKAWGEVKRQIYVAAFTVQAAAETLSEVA

Compound: O=C(O)CCC(OC(=O)NC(CCCCNC(=O)c1ccc(I)cc1F)C(=O)O)C(=O)O (stereo not drawn) [Compound 24]
- Ki [1]: 200 pM
- renal uptake (in words) [2]: high initial renal uptake that decreases over time
- uptake in PSMA+ PiP tumors (in words) [2]: high uptake

Compound: O=C(O)CCC(OC(=O)NC(CCCCNC(=O)c1ccc(Br)cc1F)C(=O)O)C(=O)O (stereo not drawn) [Compound 25]
- Ki [1]: 100 pM
- renal uptake (in words) [2]: high initial renal uptake that decreases over time
- uptake in PSMA+ PiP tumors (in words) [2]: high uptake

Compound: O=C(O)CC[C@H](NC(=O)N[C@@H](CCC(=O)NCCc1ccc(I)cc1)C(=O)O)C(=O)O [HS-549]
- renal uptake (in words) [2]: high initial kidney uptake
- uptake in PSMA+ PiP tumors (in words) [2]: high PSMA+Pip tumor uptake

Compound: O=C(O)CC[C@H](NC(=O)N[C@@H](CCCCNC(=O)c1ccc(I)cc1)C(=O)O)C(=O)O [YC-I-27]
- uptake and retention in kidneys ([2]; radiolabeled form, out to two days post-injection): > 100 % ID/g
- uptake in PSMA+ PiP tumors (in words) [2]: high and prolonged uptake

Compound: O=C([O-])CN1CCN(CC(=O)[O-])CCN(C(CCC(=O)NCCCCC(=O)N(CCCC[C@H](NC(=O)N[C@@H](CCC(=O)O)C(=O)O)C(=O)O)Cc2ccc(Br)cc2)C(=O)O)CCN(CC(=O)[O-])CC1.[177Lu+3] (stereo partly drawn) [[^177Lu]VK-03-27]
- Biodistribution: Blood ([3]; No CI): 0.43 ± 0.6 % injected dose/gram
- Biodistribution: Flu tumor ([3]; No CI): 0.4 ± 0.02 % injected dose/gram
- Biodistribution: Lacrimal Glands ([3]; No CI): 1.06 ± 0.37 % injected dose/gram
- Biodistribution: PiP tumor ([3]; No CI): 55 ± 12 % injected dose/gram
- Biodistribution: Salivary gland ([3]; No CI): 1.2 ± 0.25 % injected dose/gram
- Biodistribution: kidneys ([3]; No CI): 140 ± 21 % injected dose/gram
- Biodistribution: spleen ([3]; No CI): 8.0 ± 2.8 % injected dose/gram
- Biodistribution: stomach ([3]; No CI): 0.44 ± 0.6 % injected dose/gram
- Biodistribution: Blood ([3]; co-injection 2 nmole VK-03-27): 0.23 ± 0.5 % injected dose/gram
- Biodistribution: Flu tumor ([3]; co-injection 2 nmole VK-03-27): 0.32 ± 0.05 % injected dose/gram
- Biodistribution: Lacrimal Glands ([3]; co-injection 2 nmole VK-03-27): 0.29 ± 0.08 % injected dose/gram
- Biodistribution: PiP tumor ([3]; co-injection 2 nmole VK-03-27): 37 ± 8 % injected dose/gram
- Biodistribution: Salivary gland ([3]; co-injection 2 nmole VK-03-27): 0.24 ± 0.04 % injected dose/gram
- Biodistribution: kidneys ([3]; co-injection 2 nmole VK-03-27): 10.6 ± 0.6 % injected dose/gram
- Biodistribution: spleen ([3]; co-injection 2 nmole VK-03-27): 0.8 ± 0.17 % injected dose/gram
- Biodistribution: stomach ([3]; co-injection 2 nmole VK-03-27): 0.23 ± 0.09 % injected dose/gram
- Biodistribution: Blood ([3]; co-injection 20 nmole VK-03-27): 0.25 ± 0.14 % injected dose/gram
- Biodistribution: Flu tumor ([3]; co-injection 20 nmole VK-03-27): 0.27 ± 0.05 % injected dose/gram
- Biodistribution: Lacrimal Glands ([3]; co-injection 20 nmole VK-03-27): 0.26 ± 0.05 % injected dose/gram
- Biodistribution: PiP tumor ([3]; co-injection 20 nmole VK-03-27): 26 ± 4 % injected dose/gram
- Biodistribution: Salivary gland ([3]; co-injection 20 nmole VK-03-27): 0.16 ± 0.04 % injected dose/gram
- Biodistribution: kidneys ([3]; co-injection 20 nmole VK-03-27): 3.5 ± 0.56 % injected dose/gram
- Biodistribution: spleen ([3]; co-injection 20 nmole VK-03-27): 0.39 ± 0.18 % injected dose/gram
- Biodistribution: stomach ([3]; co-injection 20 nmole VK-03-27): 0.45 ± 0.35 % injected dose/gram
- Biodistribution: Blood ([3]; co-injection 40 nmole VK-03-27): 0.16 ± 0.03 % injected dose/gram
- Biodistribution: Flu tumor ([3]; co-injection 40 nmole VK-03-27): 0.25 ± 0.05 % injected dose/gram
- Biodistribution: Lacrimal Glands ([3]; co-injection 40 nmole VK-03-27): 0.26 ± 0.11 % injected dose/gram
- Biodistribution: PiP tumor ([3]; co-injection 40 nmole VK-03-27): 18 ± 3 % injected dose/gram
- Biodistribution: Salivary gland ([3]; co-injection 40 nmole VK-03-27): 0.25 ± 0.21 % injected dose/gram
- Biodistribution: kidneys ([3]; co-injection 40 nmole VK-03-27): 2.15 ± 0.1 % injected dose/gram
- Biodistribution: spleen ([3]; co-injection 40 nmole VK-03-27): 0.21 ± 0.1 % injected dose/gram
- Biodistribution: stomach ([3]; co-injection 40 nmole VK-03-27): 0.42 ± 0.21 % injected dose/gram
- Biodistribution: Blood ([4]; 2 Hour): 1.2 ± 1.7 % injected dose/gram
- Biodistribution: Flu tumor ([4]; 2 Hour): 5.8 ± 9.6 % injected dose/gram
- Biodistribution: Lacrimal gland ([4]; 2 Hour): 5.8 ± 9.6 % injected dose/gram
- Biodistribution: PiP tumor ([4]; 2 Hour): 50 ± 14 % injected dose/gram
- Biodistribution: Salivary gland ([4]; 2 Hour): 3.4 ± 4.4 % injected dose/gram
- Biodistribution: kidneys ([4]; 2 Hour): 150 ± 32 % injected dose/gram
- Biodistribution: spleen ([4]; 2 Hour): 7.4 ± 3.0 % injected dose/gram
- Biodistribution: stomach ([4]; 2 Hour): 0.66 ± 0.75 % injected dose/gram
- Biodistribution: Blood ([4]; 8 Hour): 0.06 ± 0.02 % injected dose/gram
- Biodistribution: Flu tumor ([4]; 8 Hour): 0.25 ± 0.05 % injected dose/gram
- Biodistribution: Lacrimal gland ([4]; 8 Hour): 0.25 ± 0.05 % injected dose/gram
- Biodistribution: PiP tumor ([4]; 8 Hour): 41 ± 9 % injected dose/gram
- Biodistribution: Salivary gland ([4]; 8 Hour): 0.34 ± 0.18 % injected dose/gram
- Biodistribution: kidneys ([4]; 8 Hour): 52 ± 18 % injected dose/gram
- Biodistribution: spleen ([4]; 8 Hour): 1.2 ± 0.6 % injected dose/gram
- Biodistribution: stomach ([4]; 8 Hour): 0.32 ± 0.31 % injected dose/gram
- Biodistribution: Blood ([4]; 24 Hour): 0.03 ± 0.01 % injected dose/gram
- Biodistribution: Flu tumor ([4]; 24 Hour): 0.12 ± 0.02 % injected dose/gram
- Biodistribution: Lacrimal gland ([4]; 24 Hour): 0.12 ± 0.02 % injected dose/gram
- Biodistribution: PiP tumor ([4]; 24 Hour): 49 ± 7 % injected dose/gram
- Biodistribution: Salivary gland ([4]; 24 Hour): 0.16 ± 0.06 % injected dose/gram
- Biodistribution: kidneys ([4]; 24 Hour): 5.9 ± 2.7 % injected dose/gram
- Biodistribution: spleen ([4]; 24 Hour): 0.28 ± 0.13 % injected dose/gram
- Biodistribution: stomach ([4]; 24 Hour): 0.14 ± 0.03 % injected dose/gram
- PSMA+ PiP tumor uptake (in words) ([4]; Table 7): high PSMA+PipTumor uptake
- renal uptake (in words) ([4]; Table 7): very high early renal uptake

Compound: O=C(O)CC[C@H](NC(=O)NC(CCCCNC(=O)c1ccc([211At])cc1)C(=O)O)C(=O)O (stereo partly drawn) [[^211At]DCIBzL, (2S)-2-(3-(1-Carboxy-5-(4-[^211At]astatobenzamido)pentyl)ureido)-pentanedioic acid]
- renal histopathology [5]: severe renal damage
